According to patent US20030096237A1, “Determination of the ability of patients to respond to a tumor treatment” (priority 2000, published 2003):

Key:
Format in all cases: cell-based, human
CNCM I-2544 = assay: proliferation inhibition, 3H-Thymidine incorporation; settings: concentration inducing at least 50% inhibition of maximal proliferation
Method: (§1) Melanoma cell lines were screened for their sensitivity to proliferation inhibition and HLA class I induction. The study was done of six cell lines (CNCM I-2544, CNCM I-2545, CNCM I-2546, CNCM I-2547, CNCM I-2548 and CNCM I-2549).
(§2) All these cell lines were cultured in RPMI medium supplemented with 10% FCS, glutamine (2 mM), sodium pyruvate (1 mM), non-essential amino acids and HEPES buffer (10 mM) (all from GIBCO Life Sciences, Paisley, UK). When confluent, the cells were passaged by trypsinization.
(§3) A number of established melanoma cell lines were assayed for their sensitivity to IFN-α by testing the capacity of IFN-α to inhibit their proliferation and to increase their surface expression of HLA class I determinants.

CNCM I-2546 = assay: as above; settings: concentration inducing at least 50% inhibition of maximal proliferation
Method: as §1, §2, §3

CNCM I-2547 = assay: as above; settings: concentration inducing at least 50% inhibition of maximal proliferation
Method: as §1, §2, §3

CNCM I-2548 = assay: as above; settings: concentration inducing at least 50% inhibition of maximal proliferation
Method: as §1, §2, §3

[1] = tested on: CNCM I-2545 and CNCM I-2546; assay: oligonucleotide array analysis, clustering of genes by mode of regulation; settings: 1st symbol CNCM I-2545, 2nd CNCM I-2546
Method: as §2
Cultured melanoma cells were harvested by scraping and total cellular RNA was extracted. 10 μg from each sample were used directly as templates for cDNA synthesis using a commercial kit (Roche Molecular Biochemicals, Rotkreuz, Switzerland). The T7 promoter sequence incorporated into the cDNA synthesis primer allowed template amplification and biotin labeling by in vitro transcription using a commercial kit (Affymetrix, Santa Clara, Calif.). After alkaline heat fragmentation […] was hybridised to the array (Affymetrix, Santa Clara, Calif.) and all subsequent steps were performed following standard procedures as supplied with the arrays. Raw data were collected with a confocal laser scanner (Hewlett Packard, Palo Alto, Calif.) using GeneChip software v3.1 (Affymetrix, Santa Clara, Calif.).
Raw data were normalized based on the total chip signal obtained upon hybridisation of ME15 cell line cDNA. This array was selected because: i) the 5′/3′ intensity ratio of control genes was smaller than 3; ii)>25% of the genes are called “present” by Genechip; iii) the image appearance is homogeneous with low background and no sign of mechanical chip damage.
The normalized average difference (nAD) between the signals of the perfect and of the mismatch probesets for each gene was used as the expression level of a given gene. At least one nAD value in a pairwise comparison of data has to exceed 50 to be included. Based on nAD, change factors related to IFN-α exposure were also calculated. Negative nAD values were set to 20 in order to avoid the calculation of artificially high modifications. In order to exclude artefacts, only genes with robust change factors, greater than 2-fold, were included in the analysis. […] Genes were clustered according to their mode of regulation.
Patterns of genes expressed in IFN-α sensitive and resistant melanoma cell lines were investigated upon 48 hour culture in the presence of IFN-α. CNCM I-2546 and CNCM I-2545 were studied in detail.
In Table 2 below, CNCM I-2546 and CNCM I-2545 cultured for 48 hours in the absence or in the presence of 100 U/ml IFN-α were used to assay cytokine modulated gene expression as matched with data obtained in fibrosarcoma cells. This analysis yielded six clusters of genes. […] Data are presented as average difference of signal intensity between match and mismatch probesets.
In Table 3 below, CNCM I-2546 and CNCM I-2545 cell lines cultured for 48 hours in the absence or in the presence of 100 U/ml IFN-α were used to identify novel cytokine induced genes whose expression was not found to be modulated in fibrosarcoma cells. Cluster 1 includes genes inducible in the CNCM I-2546 sensitive but not in the CNCM I-2545 resistant cell line. Cluster 2 comprises genes inducible in both lines. Data are presented as average difference of signal intensity between match and mismatch probesets.

- cluster's characteristics M19650 2′,3′-cyclic nucleotide 3prime-phosphodiesterase ([1]; Cluster 1): ˜u
- cluster's characteristics U50648 interferon-inducible rna-dependent protein kinase (pkr) ([1]; Cluster 1): ˜u
- cluster's characteristics X02874 2-5A synthetase (1.6 kb) ([1]; Cluster 1): ˜u
- cluster's characteristics L40387 thyroid receptor interactor (trip14) ([1]; Cluster4): du
- cluster's characteristics L42243 ifnar2 gene (interferon receptor) ([1]; Cluster 5): d˜
- cluster's characteristics X90846 mixed lineage kinase 2 ([1]; Cluster 5): d˜
- cluster's characteristics D32050 alanyl-trna synthetase ([1]; Table 3 Cluster 1): ˜u
- cluster's characteristics L13210 mac-2 binding protein ([1]; Table 3 Cluster 1): ˜u
- cluster's characteristics L37043 casein kinase i epsilon ([1]; Table 3 Cluster 1): ˜u
- cluster's characteristics U18018 ela enhancer binding protein (ela-f) ([1]; Table 3 Cluster 1): ˜u
- cluster's characteristics U47025 fetal brain glycogen phosphorylase b ([1]; Table 3 Cluster 1): ˜u
- cluster's characteristics U50327 protein kinase c substrate 80k-h gene (prkcsh) ([1]; Table 3 Cluster 1): ˜u
- cluster's characteristics U65579 mitochondrial nadh dehydrogenase-ubiquinone ([1]; Table 3 Cluster 1): ˜u
- cluster's characteristics U69126 fuse binding protein 2 (fbp2) ([1]; Table 3 Cluster 1): ˜u
- cluster's characteristics U91316 acyl-coa thioester hydrolase ([1]; Table 3 Cluster 1): ˜u
- cluster's characteristics X95325 dna binding protein a variant ([1]; Table 3 Cluster 1): ˜u
- cluster's characteristics Z26491 gene catechol o-methyltransferase ([1]; Table 3 Cluster 1): ˜u
- cluster's characteristics D78132 rheb gene, ras-related gtp binding protein gene ([1]; Table 3 Cluster 2): uu
- cluster's characteristics L35249 vacuolar h + -atpase mr 56,000 subunit (ho57) ([1]; Table 3 Cluster 2): uu
- cluster's characteristics U70063 human acid ceramidase ([1]; Table 3 Cluster 2): uu
- cluster's characteristics X70848 protein phosphatase 1, catalytic subunit ([1]; Table 3 Cluster 2): uu
- cluster's characteristics Z47055 farnesyl pyrophosphate synthetase like ([1]; Table 3 Cluster 2): uu
Substance: IFN-α
- proliferation inhibition (IC50) (CNCM I-2544): 100 U/ml
- proliferation inhibition (IC50) (CNCM I-2546): 100 U/ml
- proliferation inhibition (IC50) (CNCM I-2547): 10 U/ml
- proliferation inhibition (IC50) (CNCM I-2548): 10 U/ml
- cluster's characteristics D28137 bst-2 ([1]; Cluster 1): ˜u
- cluster's characteristics D49824 hla-b null allele ([1]; Cluster 1): ˜u
- cluster's characteristics HG658 major histocompatibility complex, class 1 c ([1]; Cluster 1): ˜u
- cluster's characteristics HG2917 major histocompatibility complex, class i, e ([1]; Cluster 1): ˜u
- cluster's characteristics J00105 beta-2 microglobulin gene ([1]; Cluster 1): ˜u
- cluster's characteristics J04164 interferon-inducible protein 27-sep ([1]; Cluster 1): ˜u
- cluster's characteristics M13755 interferon-induced 17-kda/15-kda protein ([1]; Cluster 1): ˜u
- cluster's characteristics M94880 mhc class i (hla-a*8001) ([1]; Cluster 1): ˜u
- cluster's characteristics U22970 16-jun gene, interferon-inducible peptide (6-16) ([1]; Cluster 1): ˜u
- cluster's characteristics U51127 interferon regulatory factor 5 ([1]; Cluster 1): ˜u
- cluster's characteristics X07730 prostate specific antigen ([1]; Cluster 1): ˜u
- cluster's characteristics X57351 1-8d gene from interferon-inducible gene family ([1]; Cluster 1): ˜u
- cluster's characteristics X57522 ring4 cdna ([1]; Cluster 1): ˜u
- cluster's characteristics X67325 p27 ([1]; Cluster 1): ˜u
- cluster's characteristics X96401 rox protein ([1]; Cluster 1): ˜u
- cluster's characteristics Z56281 interferon regulatory factor 3 ([1]; Cluster 1): ˜u
- cluster's characteristics M98343 amplaxin (ems1) ([1]; Cluster2): uu
- cluster's characteristics J03909 gamma-interferon-inducible protein (ip-30) ([1]; Cluster3): u˜
- cluster's characteristics M92642 alpha-1 type xvi collagen (col16a1) ([1]; Cluster3): u˜
- cluster's characteristics U41515 dss1 ([1]; Cluster3): u˜
- cluster's characteristics M97935 transcription factor isgf-3 ([1]; Cluster4): du
- cluster's characteristics U01824 glutamate/aspartate transporter ([1]; Cluster4): du
- cluster's characteristics U53830 interferon regulatory factor 7a ([1]; Cluster4): du
- cluster's characteristics U72882 interferon-induced leucine zipper protein (ifp35) ([1]; Cluster4): du
- cluster's characteristics J00212 leukocyte interferon (ifn-alpha) ([1]; Cluster 5): d˜
- cluster's characteristics K01900 lymphocyte interferon alpha type 201 ([1]; Cluster 5): d˜
- cluster's characteristics M79462 pml-1 ([1]; Cluster 5): d˜
- cluster's characteristics U52513 rig-g ([1]; Cluster 5): d˜
- cluster's characteristics M30818 interferon-induced cellular resistance mediator protein ([1]; Cluster 6): ˜d
- cluster's characteristics X15949 interferon regulatory factor-2 (irf-2) ([1]; Cluster 6): ˜d
- cluster's characteristics D21235 hhr23a protein ([1]; Table 3 Cluster 1): ˜u
- cluster's characteristics D28137 bst-2 ([1]; Table 3 Cluster 1): ˜u
- cluster's characteristics D50914 EST ([1]; Table 3 Cluster 1): ˜u
- cluster's characteristics HG1612 macmarcks ([1]; Table 3 Cluster 1): ˜u
- cluster's characteristics K03515 neuroleukin ([1]; Table 3 Cluster 1): ˜u
- cluster's characteristics M31013 nonmuscle myosin heavy chain (nmhc) ([1]; Table 3 Cluster 1): ˜u
- cluster's characteristics M34338 spermidine synthase ([1]; Table 3 Cluster 1): ˜u
- cluster's characteristics S81914 iex-1 = radiation-inducible immediate-early gene ([1]; Table 3 Cluster 1): ˜u
- cluster's characteristics U09579 melanoma differentiation associated (mda-6) ([1]; Table 3 Cluster 1): ˜u
- cluster's characteristics U18009 chromosome 17q21 clone lf113 ([1]; Table 3 Cluster 1): ˜u
- cluster's characteristics U61263 acetolactate synthase homolog ([1]; Table 3 Cluster 1): ˜u
- cluster's characteristics U65932 extracellular matrix protein 1 (ecm1) ([1]; Table 3 Cluster 1): ˜u
- cluster's characteristics U72206 guanine nucleotide regulatory factor (lfp40) ([1]; Table 3 Cluster 1): ˜u
- cluster's characteristics X04412 plasma gelsolin ([1]; Table 3 Cluster 1): ˜u
- cluster's characteristics X76538 mpv17 ([1]; Table 3 Cluster 1): ˜u
- cluster's characteristics Y00264 amyloid a4 precursor ([1]; Table 3 Cluster 1): ˜u
- cluster's characteristics J04182 lysosomal membrane glycoprotein-1 (lamp1) ([1]; Table 3 Cluster 2): uu
- cluster's characteristics J04444 cytochrome c-1 gene ([1]; Table 3 Cluster 2): uu
- cluster's characteristics L07633 interferon-gamma ([1]; Table 3 Cluster 2): uu
- cluster's characteristics M60784 ul snrnp-specific protein ([1]; Table 3 Cluster 2): uu
- cluster's characteristics M65028 heterogeneous nuclear ribonucleoprotein a/b ([1]; Table 3 Cluster 2): uu
- cluster's characteristics U78525 human eukaryotic translation initiation factor (eif3) ([1]; Table 3 Cluster 2): uu
